Measured values published in article PMC9656702, “Unveiling a New Selenocyanate as a Multitarget Candidate with Anticancer, Antileishmanial and Antibacterial Potential” (Molecules, 2022).
Read-outs that look alike come from different tables or passages of the source.

How the values were obtained:
C. freundii = experiment: MIC and MBC assay, C. freundii; format: cell-based, Citrobacter freundii; settings: Citrobacter freundii; Gram-negative, 24 h at 37 °C; read-out: MIC C. freundii
Protocol: (§1) The minimum inhibitory concentration (MIC) and the minimum bactericidal concentration (MBC) values of the selenocompounds were determined in a panel of six bacterial strains as a first approach to assess their antibacterial activity. Thus, the synthesized derivatives were tested against the Gram-negative bacteria Escherichia coli (E. coli), Klebsiella pneumoniae (K. pneumoniae) and Citrobacter freundii (C. freundii); and the Gram-positive bacteria Staphylococcus aureus (S. aureus), Streptococcus faecalis (S. faecalis), and Staphylococcus epidermidis (S. epidermidis). […]
(§2) All the selenocompounds were screened for their in vitro inhibitory activity against three Gram-negative (E. coli, K. pneumoniae and C. freundii) and three Gram-positive (S. aureus, S. faecalis and S. epidermidis) bacteria. Bacterial strains were kindly provided by the Department of Microbiology and Parasitology of the University of Navarra. The bacterial cells were grown in tryptic soy agar (TSA) plates and maintained at 4 °C.
(§3) The compounds were firstly dissolved in DMSO and serially diluted in a 96-well plate in tryptic soy broth (TSB) with eleven concentrations ranging from 400 µg/mL to 0.4 µg/mL with a final volume of 100 µL. Subsequently, 100 µL of a diluted suspension of bacterial cells with an optical density of 0.125 measured at 600 nm in TSB (inoculum of approximately 10^5 CFU/mL) was added to each well and incubated at 37 °C for 24 h. After the incubation period, each well was analyzed for the presence or absence of visual growth of bacterial cells. The lowest concentration of the test compound at which no visible growth occurred was determined as the MIC values. After incubation, 10 µL of the bacterial suspension from each well that presented antibacterial activity was added to divided TSA plates and incubated at 37 °C overnight.

[1] = tested on: Leishmania major promastigotes; experiment: Parasite viability MTT assay, L. major promastigotes; format: cell-based; settings: Leishmania major, 48 h, promastigotes, MTT assay, mean ± SD, read-out: IC50 Leishmania major
Protocol: (§4) The cytotoxic activities of all the derivatives against Leishmania major and Leishmania infantum promastigotes were studied by the MTT assay after exposing the parasites to five different concentrations of each compound for 48 h. Miltefosine and paromomycin, two currently available drugs for the treatment of leishmaniasis, were used as positive controls.
(§5) L. major (clone VI, MHOM/IL/80/Friendlin) and L. infantum (BCN-150) promastigotes were grown in continuous stirred M199 1X medium (Sigma, St Louis, MO, USA) at 26 °C supplemented with 25 mM HEPES (pH 7.2), 10% heat-inactivated FBS (Gibco, Gaithersburg, MD, USA), 0.1 mM adenine, 0.0005% (w/v) hemin, 0.0001% (w/v) biotin, 100 UI/mL penicillin and […] streptomycin (Gibco, Gaithersburg, MD, USA). Media were changed before each experiment to achieve exponential growth.
(§6) The antileishmanial activity was assessed by the MTT assay as previously described. Briefly, 3 × 10^6 promastigotes of both Leishmania strains were placed into a 96-well plate with supplemented M199 1X medium during their logarithmic growth phase. The parasites were treated with five increasing concentrations of the compounds ranging between 0.1 and 1000 µM at 26 °C for 48 h. At the termination point, 20 µL of MTT (5 mg/mL) was added and further incubated for 4 h. The resultant formazan crystals formed were dissolved in 80 µL of DMSO and the absorbance was measured at 550 nm on a microplate reader. IC50 values were calculated using OriginPro 8.5.1. software by nonlinear curve fitting. Miltefosine and paromomycin were used as reference drugs. Data were obtained from at least three independent experiments performed in triplicates.

MDA-MB-231 = experiment: Antiproliferative MTT assay, MDA-MB-231 breast cancer cells; format: cell-based, human; settings: Homo sapiens, MDA-MB-231; MTT assay, 48 h, mean ± SD; read-out: IC50 MDA-MB-231
Protocol: (§7) The antiproliferative activities of the cinnamyl and benzodioxyl derivatives were assessed against six human cell lines of three different types of cancer (colon, lung, and breast) using the 3-(4,5-dimethylthiazol-2-yl)-2,5-diphenyltetrazolium bromide (MTT) assay at seven concentrations for 48 h. The results are expressed as the IC50 values and are outlined in Table 1.
(§8) The cell lines were obtained from the American Type Culture Collection (ATCC). All the cancer cell lines (HT-29, HCT-116, H1299, HTB-54, MDA-MB-231 and MCF-7) and the nontumorigenic cells (184B5) were maintained in RPMI 1640 medium (Gibco), supplemented with 10% fetal bovine serum (FBS; Gibco) and 1% antibiotics (10.00 units/mL penicillin and 10.00 mg/mL streptomycin; Gibco). Cells were preserved in tissue culture flasks at 37 °C and 5% CO2. Culture medium was replaced every three days.
(§9) The cytotoxic effect of each compound was initially tested at seven different concentrations ranging between 0.5 and 100 µM in the cell lines mentioned above. The cells were seeded (1 × 10^4 cells per well) in 96-well plates and incubated at 37 °C and 5% CO2 for 24 h. After attachment, cells were treated with either dimethyl sulfoxide (DMSO) or increasing concentrations of the corresponding selenocompound for 48 h. The effect of the compounds on cell viability was determined by the MTT assay. In brief, 20 µL of MTT (5 mg/mL) was added to each well 2.5 h prior to experiment termination. At the end of the incubation, the medium was removed, and the formazan crystals were dissolved in 50 µL of DMSO. Absorbance was measured at 550 nm on a microplate reader. IC50 values were calculated using OriginPro 8.5.1. software by nonlinear curve fitting. Selectivity indexes were calculated as the ratio of the IC50 values determined for the nonmalignant and the tumoral cells in the breast cell lines (IC50 (184B5)/IC50 (MDA-MB-231) and IC50 (184B5)/IC50 (MCF-7)). Data were obtained from at least three independent experiments performed in triplicates.

184B5 = experiment: MTT assay in nonmalignant mammary gland cells 184B5; format: cell-based; settings: nontumorigenic cells, MTT assay, 48 h, mean ± SD
Protocol: To assess their possible selectivity, the synthesized selenocompounds were then tested in a mammary gland (184B5) nonmalignant cell line, and the selectivity indexes (SI) were determined as the ratio of the IC50 values obtained for the nonmalignant cells and the homolog cancer cells.
as §8, §9

MCF-7 = experiment: Antiproliferative MTT assay, MCF-7 breast cancer cells; format: cell-based, human; settings: MTT assay, 48 h, mean ± SD
Protocol: as §7, §8, §9

HT-29 = experiment: Antiproliferative MTT assay, HT-29 colon cancer cells; format: cell-based, human; settings: MTT assay, 48 h, mean ± SD, read-out: IC50 HT-29
Protocol: as §7, §8, §9

HTB-54 = experiment: Antiproliferative MTT assay, HTB-54 lung cancer cells; format: cell-based, human; settings: Homo sapiens, HTB-54; MTT assay, 48 h, mean ± SD; read-out: IC50 HTB-54
Protocol: as §7, §8, §9

S. aureus = experiment: MIC and MBC assay, S. aureus; format: cell-based, Staphylococcus aureus; settings: Staphylococcus aureus; Gram-positive, 24 h at 37 °C
Protocol: as §1, §2, §3

[2] = tested on: Leishmania infantum promastigotes; experiment: Parasite viability MTT assay, L. infantum promastigotes; format: cell-based; settings: Leishmania infantum, 48 h, promastigotes, MTT assay, mean ± SD, read-out: IC50 Leishmania infantum
Protocol: as §4, §5, §6

S. faecalis = experiment: MIC and MBC assay, S. faecalis; format: cell-based, Streptococcus faecalis; settings: Enterococcus faecalis; Gram-positive, 24 h at 37 °C; read-out: MIC S. faecalis
Protocol: as §1, §2, §3

K. pneumoniae = experiment: MIC and MBC assay, K. pneumoniae; format: cell-based, Klebsiella pneumoniae; settings: Klebsiella pneumoniae; Gram-negative, 24 h at 37 °C; read-out: MIC K. pneumoniae
Protocol: as §1, §2, §3

HCT-116 = experiment: Antiproliferative MTT assay, HCT-116 colon cancer cells; format: cell-based, human; settings: MTT assay, 48 h, mean ± SD, read-out: IC50 HCT-116
Protocol: as §7, §8, §9

S. epidermidis = experiment: MIC and MBC assay, S. epidermidis; format: cell-based, Staphylococcus epidermidis; settings: Staphylococcus epidermidis; Gram-positive, 24 h at 37 °C; read-out: MIC S. epidermidis
Protocol: as §1, §2, §3

E. coli = experiment: MIC and MBC assay, E. coli; format: cell-based, Escherichia coli; settings: Escherichia coli; Gram-negative, 24 h at 37 °C
Protocol: as §1, §2, §3

IC50 [1] [µM]	Structure (SMILES)	MIC (C. freundii) [µg/mL]	IC50 (MDA-MB-231) [µM]	IC50 (184B5; Homo sapiens, 184B5, 48 h, read-out: IC50 184B5) [µM]	IC50 184B5 (184B5)	IC50 (MCF-7; Homo sapiens, MCF7, read-out: IC50 MCF-7) [µM]	IC50 MCF-7 (MCF-7)	IC50 (HT-29; Homo sapiens, HT-29, 48 h) [µM]	IC50 (HT-29) [µM]	IC50 (HTB-54) [µM]	MIC (S. aureus) [µg/mL]	IC50 [2] [µM]	MIC (S. faecalis) [µg/mL]	MIC (K. pneumoniae) [µg/mL]	IC50 (HCT-116; Homo sapiens, HCT-116, 48 h) [µM]	IC50 (HCT-116) [µM]	MIC (S. epidermidis) [µg/mL]	MIC (E. coli) [µg/mL]	melting point [°C]
66.6 ± 11.6	CCCCCCCCCCCCCCCCOP(=O)([O-])OCC[N+](C)(C)C [Miltefosine, reference compound]	–	–	–	–	–	–	–	–	–	–	–	–	–	–	–	–	–	–
71 ± 3.3	NC[C@@H]1O[C@H](O[C@H]2[C@@H](O)[C@H](O[C@@H]3[C@@H](O)[C@H](N)C[C@H](N)[C@H]3O[C@H]3O[C@H](CO)[C@@H](O)[C@H](O)[C@H]3N)O[C@@H]2CO)[C@H](N)[C@@H](O)[C@@H]1O [Paromomycin, reference compound]	–	–	–	–	–	–	–	–	–	–	18 ± 1	–	–	–	–	–	–	–

Structure (SMILES)	IC50 [1] [µM]	MIC (C. freundii) [µg/mL]	IC50 (MDA-MB-231) [µM]	IC50 (184B5; Homo sapiens, 184B5, 48 h, read-out: IC50 184B5) [µM]	IC50 184B5 (184B5)	IC50 (MCF-7; Homo sapiens, MCF7, read-out: IC50 MCF-7) [µM]	IC50 MCF-7 (MCF-7)	IC50 (HT-29; Homo sapiens, HT-29, 48 h) [µM]	IC50 (HT-29) [µM]	IC50 (HTB-54) [µM]	MIC (S. aureus) [µg/mL]	IC50 [2] [µM]	MIC (S. faecalis) [µg/mL]	MIC (K. pneumoniae) [µg/mL]	IC50 (HCT-116; Homo sapiens, HCT-116, 48 h) [µM]	IC50 (HCT-116) [µM]	MIC (S. epidermidis) [µg/mL]	MIC (E. coli) [µg/mL]	melting point [°C]
c1cc2c(cc1C[Se][Se]Cc1ccc3c(c1)OCO3)OCO2 [Compound 2b, 1,2-Bis(benzo[d][1,3]dioxol-5-ylmethyl)diselenide]	49.4 ± 16.7	> 200	46.6 ± 12.1	> 100	did not display any activity	> 100	completely inactive	< 12	10.1 ± 1.2	41.6 ± 9.4	> 200	56.1 ± 8.1	> 200	> 200	~11	11.3 ± 1	> 200	> 200	78 to 80
